How the values were obtained:
Assay type in all cases: in vivo
[1] = system: Amaranthus retroflexus; assay: Greenhouse trial, efficacy with respect to Amaranthus retroflexus; conditions: post-emergence, 2-3-leaf stage, scoring 13 days after treatment
Experimental: (§1) The trials were carried out under greenhouse conditions (test pots, diameter 8 cm, spray application using 300 l of water/hectare, 2 repetitions, 6 to 8 plants per pot, permanently flooded).
(§2) Application was by post-emergence treatment, the species of the harmful plants and their stage of growth at the time of treatment are indicated in the individual results tables. The application rates of the herbicidally active compounds used on their own or in combinations are likewise listed in the individual results tables.
(§3) Scoring was by visual comparison of the treated with the untreated controls (0-100% scale, 13-15 days after the application) (see details in the respective tables).
(§4) 4.2 Abbreviations Used in Tables 4 to 6 • application rate g/ai=application rate in grams of active compound per hectare • ai=active ingredient (of an active compound content of 100%) • GA=glufosinate-ammonium • GA-tolerant=rice which is tolerant to GA (GMO: LL-rice) • E^C=expected value according to Colby, (E^C=A+B−A×B/100) • =for ternary combinations: (A+B)+C−(A+B)×C/100 • E^A=expected value according to the addition method (E^A=A+B) • Δ=difference (%) between observed value—%—vs. expected value (%) (observed value minus expected value) examination: observed values for (A), (B) and (A)+(B) in scoring: observed value (%) greater >than E^C/E^A:->synergism (+Δ) • observed value (%) equal to =E^C/E^A->additive effect (+−0Δ) • observed value (%) smaller <than E^A/E^C->antagonism (−Δ)

[2] = system: rice (GA-tolerant); assay: Greenhouse trial, crop plant compatibility in rice (GA-tolerant)
Experimental: as §1, §3

[3] = system: Leptochloa chinensis; assay: Greenhouse trial, efficacy with respect to Leptochloa chinensis; conditions: post-emergence
Experimental: as §1, §2, §3, §4

[4] = system: Cyperus esculentus; assay: Greenhouse trial, efficacy with respect to Cyperus esculentus; conditions: post-emergence, 1-3-leaf stage, scoring 15 days after application
Experimental: as §1, §2, §3, §4

[5] = 100 g of ai/ha, post-emergence, 1-3-leaf stage, scoring 15 days after application (Table 5)
[6] = Dinebra chinensis, 360 h, read-out: Herbicidal activity % Leptochloa chinensis
[7] = 50 g of ai/ha, post-emergence, 1-3-leaf stage, scoring 15 days after application (Table 5)

Which “Herbicidal efficacy % Amaranthus retroflexus” value ([1]; 100 g of ai/ha) does the source give for CP(=O)(O)CCC(N)C(=O)O (centres unmarked) [A1.1, glufosinate-ammonium] here?
The value was 55%.

What about the “Damage to crop plants (%) rice (GA-tolerant) (≦15-20% acceptable)” value (shortened to “Damage to crop plants (%) rice”) [2, 5] of the same compound?
The value was 10%.

And the “Damage to crop plants (%) rice” value ([2]; 100 g of ai/ha, post-emergence, 1-3-leaf stage, scoring 15 days after application (Table 6))?
Its value is 10%.

What about the “Damage to crop plants (%) rice” value ([2]; 100 g of ai/ha, post-emergence, 2-3-leaf stage, scoring 13 days after treatment) of the same compound?
The value was 10%.

What about the inhibition at 100 g/ha [3, 6] of the same compound?
Its inhibition at 100 g/ha is 10%.

What about the “Herbicidal efficacy % Cyperus esculentus” value ([4]; 100 g of ai/ha) of the same compound?
Its value is 25%.

What does the source list for COC(=O)c1nc(-c2ccc(Cl)c(OC)c2F)cc(N)c1Cl [B1.1, methyl 4-amino-3-chloro-6-(4-chloro-2-fluoro-3-methoxyphenyl)pyridine-2-carboxylate]?
Herbicidal efficacy % Amaranthus retroflexus ([1]; 20 g of ai/ha): 90%; Damage to crop plants (%) rice (GA-tolerant) (≦15-20% acceptable) ([2]; in vivo): 0%; inhibition at 20 g/ha [3, 6]: 45%; Herbicidal efficacy % Cyperus esculentus ([4]; 20 g of ai/ha): 60%

What does the source list for Cc1nn(-c2cc(CC(Cl)C(=O)O)c(Cl)cc2F)c(=O)n1C(F)F (centres unmarked) [C13, carfentrazone]?
Damage to crop plants (%) rice (GA-tolerant) (≦15-20% acceptable) ([2]; 4 g of ai/ha, post-emergence, 1-3-leaf stage, scoring 15 days after application (Table 5)): 10%; Herbicidal efficacy % Cyperus esculentus ([4]; 4 g of ai/ha): 0%

For CC1(C)CON(Cc2ccccc2Cl)C1=O [C17, clomazone], which “Damage to crop plants (%) rice” value [2, 5] is on record?
The value was 0%.

And the “Herbicidal efficacy % Cyperus esculentus” value ([4]; 100 g of ai/ha)?
The value was 10%.

Which “Damage to crop plants (%) rice” value [2, 7] does the source give for C[C@@H](Oc1ccc(Oc2ccc(C#N)cc2F)cc1)C(=O)O [C19, cyhalofop] here?
The value was 0%.

What about the “Herbicidal efficacy % Cyperus esculentus” value ([4]; 50 g of ai/ha) of the same compound?
Its value is 10%.

Which “Damage to crop plants (%) rice” value [2, 5] does the source give for O=C(O)COc1ccc(Cl)cc1Cl [C20, 2,4-D] here?
The value was 0%.

What about the “Herbicidal efficacy % Cyperus esculentus” value ([4]; 100 g of ai/ha) of the same compound?
Its value is 20%.

What does the source list for CCOc1ccccc1OS(=O)(=O)NC(=O)Nc1nc(OC)cc(OC)n1 [C24, ethoxysulfuron]?
Herbicidal efficacy % Amaranthus retroflexus ([1]; 10 g of ai/ha): 40%; Damage to crop plants (%) rice (GA-tolerant) (≦15-20% acceptable) ([2]; in vivo): 0%

CCOC(=O)[C@@H](C)Oc1ccc(Oc2nc3ccc(Cl)cc3o2)cc1 [C29, fenoxaprop-P-ethyl] was tested. Which “Herbicidal efficacy % Amaranthus retroflexus” value ([1]; 10 g of ai/ha) did it give?
Its value is 10%.

What about the “Damage to crop plants (%) rice” value ([2]; 10 g of ai/ha, post-emergence, 2-3-leaf stage, scoring 13 days after treatment) of the same compound?
The value was 10%.

How did the “Herbicidal efficacy % Amaranthus retroflexus” value ([1]; 75 g of ai/ha) turn out when CCN(C(=O)n1nnn(-c2ccccc2Cl)c1=O)C1CCCCC1 [C30, fentrazamide] was run?
The value was 30%.

Which results are given for COC(=O)c1ccccc1S(=O)(=O)NC(=O)Nc1nc(C)nc(OC)n1 [C43, metsulfuron-methyl]?
Damage to crop plants (%) rice (GA-tolerant) (≦15-20% acceptable) ([2]; in vivo): 15%; Herbicidal efficacy % Cyperus esculentus ([4]; 3 g of ai/ha): 0%

With CC(C)Oc1cc(-n2nc(C(C)(C)C)oc2=O)c(Cl)cc1Cl [C50, oxadiazon] as the compound, how does the “Damage to crop plants (%) rice” value ([2]; in vivo) read?
The value was 0%.

And the “Herbicidal efficacy % Cyperus esculentus” value ([4]; 3 g of ai/ha)?
The value was 10%.

Which results are given for CCC(CC)Nc1c([N+](=O)[O-])cc(C)c(C)c1[N+](=O)[O-] [C53, pendimethalin]?
Herbicidal efficacy % Amaranthus retroflexus ([1]; 200 g of ai/ha): 50%; Damage to crop plants (%) rice (GA-tolerant) (≦15-20% acceptable) ([2]; 200 g of ai/ha, post-emergence, 2-3-leaf stage, scoring 13 days after treatment): 10%

How did the “Damage to crop plants (%) rice” value ([2]; 500 g of ai/ha, post-emergence, 1-3-leaf stage, scoring 15 days after application (Table 5)) turn out when CCC(=O)Nc1ccc(Cl)c(Cl)c1 [C55, propanil] was run?
The value was 0%.

And the “Herbicidal efficacy % Cyperus esculentus” value ([4]; 500 g of ai/ha)?
Its value is 10%.

Which “Herbicidal efficacy % Amaranthus retroflexus” value ([1]; 50 g of ai/ha) does the source give for CCOC(=O)c1cnn(C)c1S(=O)(=O)NC(=O)Nc1nc(OC)cc(OC)n1 [C59, pyrazosulfuron-ethyl] here?
Its value is 60%.

And the “Damage to crop plants (%) rice” value ([2]; 50 g of ai/ha, post-emergence, 2-3-leaf stage, scoring 13 days after treatment)?
Its value is 10%.

Which results are given for CS(=O)(=O)c1ccc(C(=O)C2C(=O)CCCC2=O)c(Cl)c1COCC1CCCO1 (centres unmarked) [C64, tefuryltrione]?
Damage to crop plants (%) rice (GA-tolerant) (≦15-20% acceptable) [2, 7]: 0%; Herbicidal efficacy % Cyperus esculentus ([4]; 50 g of ai/ha): 30%

What does the source list for COc1nc(OC)nc(C(=O)c2cccc(F)c2N(C)S(=O)(=O)C(F)F)n1 [C72, AE 196 triafamone]?
Damage to crop plants (%) rice (GA-tolerant) (≦15-20% acceptable) ([2]; 6 g of ai/ha, post-emergence, 1-3-leaf stage, scoring 15 days after application (Table 5)): 0%; Herbicidal efficacy % Cyperus esculentus ([4]; 6 g of ai/ha): 65%

How did the “Herbicidal activity % Leptochloa chinensis” value ([3]; 25 g of ai/ha, 1-3-leaf stage, scoring 15 days after application) turn out when oxadiargyl [C49] was run?
The value was 70%.
